Assay results: patent US8101761B2, “(E)-N-{3-[1-(8-fluoro-11H-10-OXA-1-AZA-dibenzo [A,D] cyclohepten-5ylidene)-propyl]-phenyl}-methanesulfonamide as glucocorticoid receptor modulator for the treatment of rheumatoid arthritis” (Eli Lilly and Company, priority 2008, dated 2012)

Molecular target: T1, human androgen receptor (AR) (Homo sapiens, UniProt P10275)
T1 construct: expressed in transfected cells; host or cells: HEK293, transient transfection, CMV promoter plasmid
T1 sequence (P10275 1-920): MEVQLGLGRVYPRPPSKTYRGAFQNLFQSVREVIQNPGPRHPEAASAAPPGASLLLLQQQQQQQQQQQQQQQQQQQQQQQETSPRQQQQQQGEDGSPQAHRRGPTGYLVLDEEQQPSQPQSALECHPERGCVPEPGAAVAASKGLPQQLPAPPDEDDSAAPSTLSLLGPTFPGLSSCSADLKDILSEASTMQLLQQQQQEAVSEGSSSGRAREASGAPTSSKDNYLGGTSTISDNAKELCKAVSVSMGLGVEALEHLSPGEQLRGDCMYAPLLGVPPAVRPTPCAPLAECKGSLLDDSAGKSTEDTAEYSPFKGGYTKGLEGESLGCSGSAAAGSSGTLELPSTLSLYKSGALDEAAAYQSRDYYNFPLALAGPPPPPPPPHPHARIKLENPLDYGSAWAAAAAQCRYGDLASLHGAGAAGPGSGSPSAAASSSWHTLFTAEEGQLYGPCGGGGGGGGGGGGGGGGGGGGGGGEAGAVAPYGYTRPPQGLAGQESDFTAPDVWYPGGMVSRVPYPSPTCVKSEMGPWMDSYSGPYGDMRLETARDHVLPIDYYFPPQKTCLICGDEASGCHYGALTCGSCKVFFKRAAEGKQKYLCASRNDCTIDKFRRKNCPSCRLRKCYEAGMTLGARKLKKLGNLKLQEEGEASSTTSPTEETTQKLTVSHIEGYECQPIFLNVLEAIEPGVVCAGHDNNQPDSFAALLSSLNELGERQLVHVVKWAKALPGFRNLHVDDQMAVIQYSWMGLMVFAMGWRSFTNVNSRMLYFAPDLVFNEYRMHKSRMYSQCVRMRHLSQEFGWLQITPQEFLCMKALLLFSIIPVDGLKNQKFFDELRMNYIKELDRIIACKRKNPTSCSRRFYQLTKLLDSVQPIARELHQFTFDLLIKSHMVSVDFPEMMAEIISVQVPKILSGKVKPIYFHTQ
Assay: Nuclear hormone receptor functional modulation assay (probasin ARE-luciferase reporter, HEK293), AR
Assay type: cell-based
Conditions: agonist mode, mean of n=4 or 5
Text: The solvents, reagents, and ligands employed in the functional assay are readily available from commercial sources, or can be prepared by one of ordinary skill in the art.
Human embryonic kidney HEK293 cells are transfected with steroid hormone receptor and reporter gene plasmids using Fugene™ transfection reagent. Briefly, the reporter plasmid containing two copies of probasin ARE and TK(thymidine kinase) promoter upstream of the luciferase reporter cDNA, is transfected into HEK293 cells with a plasmid constitutively expressing human androgen receptor (AR) using viral CMV(cytomegalovirus) promoter. The reporter plasmid containing two copies of GRE and TK promoter upstream of the luciferase reporter cDNA is transfected with a plasmid constitutively expressing either human glucocorticoid receptor (GR), human mineralocorticoid receptor (MR), or human progesterone receptor (PR) using viral CMV promoter. […] After 24-hours incubation with test compounds, cells are lysed and luciferase activity is determined using standard techniques.
Data are fitted to a four parameter-fit logistic curve fit to determine EC50 values. […] IC50 values may be determined similarly using antagonist mode assay data. Percent inhibitions may also be determined relative to the response in the presence of agonist alone, as described above.

efficacy in activating transcription, AR (relative to 100 nM methyltrienolone): about 4.4% | EC50 (read-out: EC50 in activating transcription, AR): > 10 µM
SMILES: CC/C(=C1\c2ccc(F)cc2OCc2ncccc21)c1cccc(NS(C)(=O)=O)c1 [Compound (I), (E)-N-{3-[1-(8-Fluoro-11H-10-oxa-1-aza-dibenzo[a,d]cyclohepten-5-ylidene)-propyl]-phenyl}-methanesulfonamide]
